Data taken from US20240018470A1, “METHOD OF MANIPULATING PLURIPOTENCY IN CELLS” (YALE UNIVERSITY, priority 2022, published 2024).

How the values were obtained:
Xenopus embryos [1] = test: Organ situs (left-right patterning) scoring in stage 45 tadpoles; assay type: in vivo, Xenopus tropicalis; settings: kcnh6 depletion, injected at one-cell stage
Procedure: Stage 45 Xenopus embryos were paralyzed with benzocaine or tricaine and scored with a light stereomicroscope. Cardiac looping was determined by position of the outflow tract; D-loop: rightward, L-loop: leftward; A-loop: midline. Normal intestinal looping was scored as counter-clockwise rotation of the gut, while abnormal intestinal looping was scored as completely inverse gut rotation (clockwise) or complete lack of looping (un-looped). While a completely inverted gut rotation is clearly an abnormality of LR patterning, an unlooped gut is less clear so the present study only considered an unlooped gut as abnormal situs when combined with abnormal placement (left-sided or midline) of the gall bladder. To quantify total abnormal organ situs, each tadpole was counted only once, regardless of whether multiple organs were affected.
(§1) Normal embryonic medium is 1/9× modified Ringer's (MR) containing 11 mM NaCl, 0.2 mM KCl, 0.2 mM CaCl2), 0.1 mM Mg2Cl and 0.55 mM HEPES. To allow Ergtoxin to penetrate the embryos, the present study manually removed the vitelline envelope of stage 8 embryos and incubated embryos in 1/9×MR containing 50 nM Ergtoxin (Alomone STE-450) until stage 12. Embryos were then transferred back into 1/9×MR lacking Ergtoxin to develop until stage 45 in order to score organ situs. Barium chloride was applied into the medium at 20 mM and embryos were thoroughly rinsed in 1/9×MR after each incubation period for further development in Ba2+-free medium. For extracellular K^+ manipulations, the KCl concentration in 1/9×MR was modified from 0.2 mM (normal) to 20 mM (high) or 0 mM (low). The ionophore valinomycin (ACROS) and L-type VGCC blocker Nifedipine (ACROS) were diluted in DMSO as stock solutions and applied to embryos in 1/9×MR at 2 nM and 10 μM respectively. Treatments performed during gastrulation were applied from stage 8 through stage 12, and embryos were then rinsed thoroughly and returned into 1/9×MR. For rapamycin, the present study created a standard stock solution of 50 mg/ml in DMSO. The stock solution was diluted 1:2500 in the appropriate embryonic media (final 20 μg/ml). Embryos were treated at stage 7 and then fixed at stage 11 for in situ hybridization.
(§2) In experiments where embryos were evaluated for phenotypes and scored (gastrulation, left-right patterning, in situ hybridizations) the present study carried out three to five biological replicates and Fisher's exact test to evaluate statistical significance. The animal cap experiment was performed twice with a total score of four to eight animal caps per experiment. For the calcium transient analyses, data was collected from three to five embryos in each experiment in three independent experiments, and statistical analyses on GCaMP/mCherry fluorescence intensity as well as Ca^2+ transient area were performed using student's t-test. For whole cell electrophysiological recordings, three to five embryos (two cells each) were examined for their membrane potential and statistical significance was tested by student's t-test. Graphs were designed using GraphPad Prism software. Models were created with BioRender.com.

Xenopus embryos [2] = test: Gastrulation scoring (incomplete blastopore closure) in treated or kcnh6-depleted embryos; assay type: in vivo, Xenopus tropicalis; settings: kcnh6 depletion, injected at one-cell stage
Procedure: All injections of Xenopus embryos were performed at the one-cell stage using a fine glass needle and Picospritzer system. A kcnh6 translation blocking (kcnh6 MO, 5′-[…]-3′, SEQ ID NO:1) and a scrambled morpholino oligonucleotide were obtained from Gene Tools LLC and injected at 10 ng to deplete kcnh6 or as a control, respectively. CRISPR sgRNAs for kcnh6 targeted either exon 3 or exon 4 based on the v7.1 gene model of the X. tropicalis genome (CRex3: 5′-[…]-3′, SEQ ID NO:2 and CRex4: 5′-[…]-3′, SEQ ID NO:3). CRISPR sgRNAs for cacna1c (5′-[…]-3′, SEQ ID NO:4) and cacna1g (5′-[…]-3′, SEQ ID NO:5) were designed from the v7.1 model of the Xenopus tropicalis genome. For F0 CRISPR knockdown, embryos were injected with 1.5 ng Cas9 Protein (PNA-Bio) and 400 pg of targeting sgRNA and raised to desired stages. […] Full length human KCNH6 (NM 030779.3; cloned in pCS107), GCaMP6 (subcloned in pCSDest) and mCherry cDNAs (Addgene #34935; in pCS2+), were used to generate capped mRNAs in vitro by first linearizing with appropriate restriction enzymes and then transcribing with the mMessage machine kit (Ambion). mRNAs were injected at 3 pg (human KCNH6), 150 pg (GCaMP6) and 150 pg (mCherry) per embryo. Embryos were raised at 21° C. to allow time for sufficient expression levels at blastula/gastrula stages.
as §1, §2

With “kcnh6 MO: kcnh6 translation blocking morpholino oligonucleotide, 5′-GGTCCTCGAAGTTTAGGATAAACAT-3′, SEQ ID NO:1 (all phosphorodiamidate morpholino (PMO))” the abnormal organ situs (Xenopus embryos [1]) was 91±7% and the “inability to complete gastrulation” value (Xenopus embryos [2]) was 31±3%.
